US5171271A, “Polypeptides with fibronectin activity” (Regents of the University of Minnesota, priority 1991, dated 1992)
Where two headings read alike, the source gives them in different places.

Tests used:
[1] = Heparin-binding assay on nitrocellulose sheets
Experimental: The assay for heparin binding utilizes nitrocellulose sheets as substrata to bind peptides or proteins to be tested for heparin binding activity. Peptides I and II or intact fibronectin (fn) were solubilized in 50 mM (NH4)2 CO3 and diIuted to the concentrations indicated in FIGS. 2 and 3. Nitrocellulose sheets which had been presoaked in 50 mM NH4 CO3 were placed in a 96 well dot blot apparatus (Bethesda Research Laboratories Bethesda, Md.), and 250 μl of various concentrations of each peptide were aspirated through the wells. Each well was then washed three times with binding buffer (10 mM Tris-HCl, pH 8.0, 0.15 M NaCl), and the filters were removed and allowed to air dry overnight. The filters were then equilibriated for 5 minutes at room temperature in binding buffer which contained 10 mM CaCl2. ^3 H-heparin was then diluted to a concentration of 50,000 cpm/ml in binding buffer (with Ca^++), and nitrocellulose sheets were incubated in the presence of this mixture for 2 hours. The filters were then washed four times with binding buffer, and air dried. The individual spots of samples were cut out of the nitrocellulose and bound heparin was quantitated with a liquid scintillation counter.

[2] = test system: Bovine aortic endothelial cells; assay: Aortic endothelial cell adhesion assay; format: cell-based; details: coating concentration 5 μg/ml, 90 minutes
Experimental: Bovine aortic encothelial cells were isolated according to the following protocol. Aortas were obtained from a local slaughterhouse, washed in cold phosphate buffered saline (PBS) (136 mM NaCI, 2.6 mM KCl, 15.2 mM Na2 HPO4, pH 7.2) and processed within 2 hours. Crude collagenase (CLS III, 125-145 units per mg dry weight, Cooper Biomedical) was used at 2 mg/ml in Dulbecco's modified Eagle's medium (DMEM) (GIBCO). The vessel was clamped at the distal end, filled with the collagenase-PBS solution and digestion was carried out for 10 minutes. The lumenal contents were harvested, followed by the addition of fresh collagenase for two additional 10-minute periods. The enzyme-cell suspensions were added to an equal volume of DMEM containing 10% fetal bovine serum (FBS) to inhibit the enzyme and spun in a centrifuge at 400×g for 10 minutes. The resulting cell pellet was resuspended in DMEM containing 10% FBS, 100 units/ml of penicillin G, 100 μg/ml of streptomycin and 100 μg/ml of crude fibroblast growth factor. Cells are cultured in 75 cm^2 flasks in a humidified 5% CO2 atmosphere at 37° C. Cultures were fed twice a week with the same medium and cells were used in assays when approximately 75% confluent. […]
Adhesion was measured using 96 well microtiter plates adsorbed with fibronectin or peptides I and II. […] The solubilized cells were then quantitated using a liquid scintillation counter. […]

[3] = test system: K1735M4 metastatic melanoma cells; details: for Tumor Cell Adhesion, Adherent Cells: melanoma cells, one hour
Experimental: The cells were cultured in Dulbecco's Modified Eagle's Medium containing 5% heat inactivated fetal calf serum. The cultures were grown in 37° C. incubators with a humidified atmosphere containing 5% CO2. Cells were subcultured twice weekly by releasing cells gently from the flask, using 0.05% trypsin and 1 mM EDTA.
The melanoma cells were pulsed in the same fashion as the endothelial cells described hereinabove, except that 2 μCi/ml ^3 HTd(tritiated thymidine) was added to each culture instead of amino acids. The labeled cells were harvested as described for the endothelial cells. The cell adhesion assay was identical to that described hereinabove for the bovine aortic endothelial cell assay.

[4] = Solid phase heparin-binding assay on Immulon C plates
Experimental: Both peptides IIa and CS I were then compared for relative heparin-binding activity. Plastic Immulon C plates (Dynatech, Alexandria, Va.) were adsorbed with 100 μl in triplicate) of the indicated levels of peptides IIa, CS I or BSA as described. The ability of the 33 kD fragment to bind heparin was also determined, for comparison, although due to the relative size of this fragment compared with the peptides, different coating concentrations were used. The actual coating levels of the 33 kD fragment were 4, 20, 100 and 500 μg/ml. Following the blocking of nonspecific binding sites with BSA, the ability of these various substrata to bind ^3 H-heparin was determined by the addition of approximately 4,000 disintegrations per minute (dpm) of this ligand. All conditions of the assay were as described in U.S. patent application Ser. No. 89,073, the disclosure of which is incorporated by reference herein.
The three peptides derived from peptide Ila and intact peptide IIa, were adsorbed to Immulon C plates at the indicated concentrations (100 μl/ well) in triplicate and tested for the ability to bind ^3 H-heparin as described hereinabove. The results of this study are summarized on FIG. 5. […] Rather, a specific primary structure is crucial for this activity. […]

[5] = test system: CNS neurons from spinal cords of 6-day chick embryos; assay: Neurite outgrowth assay, CNS neurons; format: cell-based
Experimental: Peptides I, II, IIa, III, CSI or intact fibronectin were diluted in Voller's buffer (0.05M Carbonate buffer, pH 9.6) and 100 μl of each concentration was dipensed into 96 well tissue culture plates in triplicate. The plates were then placed in a sterile hood overnight to evaporate the buffer and to dry the peptides onto the plate. The following morning, 200 μl of phosphate-buffered saline (PBS) containing 5 mg/ml bovine serum albumin (PBS/BSA) were added to each well and the plates were incubated for an additional 3 hours. At that point, the PBS/BSA was aspirated and cells in the appropriate media were added to each well.
Embryonic CNS nerve cell cultures were prepared by the method of Rogers et al., Devel. Biol., 98, 212-220 (1983). Briefly, spinal cords from 6-day chick embryos were isolated and their dorsal halves removed and placed Ca^++ -Mg^++ free (CMF) Hank's balanced salt solution for 10 minutes at 37° C. Only the ventral portions, containing predominantly motor neurons, were prepazed for culture. The cords were then dissociated in 0.25% trypsin (Bactotrypsin, Difco) in CMF Hanks for 25 minutes at 37° C. […] The number of neurons with neurites was quantitated by randomly sampling 10 fields with the aid of a dissecting microscope. […]

In the case of Fibronectin, the “3H-heparin binding (in words)” value [1] is reported as “bound ^3 H-heparin in a concentration dependent manner”, the “Concentration at which maximum 3H-heparin binding was observed” value [1] is reported as 10^-6 M and the “Adherent Cells” value [2] is reported as 13,714 Counts Per Minute. The “Tumor Cell Adhesion, Adherent Cells” value ([3]; coating concentration 1 μg/ml) was 4700 Counts Per Minute, the “Tumor Cell Adhesion, Adherent Cells” value ([3]; coating concentration 10 μg/ml) was 7900 Counts Per Minute and the “Tumor Cell Adhesion, Adherent Cells” value ([3]; coating concentration 50 μg/ml) was 11,000 Counts Per Minute. For the same substance, the “Tumor Cell Adhesion, Adherent Cells” value ([3]; coating concentration 100 μg/ml) was 9700 Counts Per Minute.
With “asp-glu-leu-pro-gln-leu-val-thr-leu-pro-his-pro-asn-leu-his-gly-pro-glu-ile-leu-asp-val-pro-ser-thr [Peptide CS I, reference compound]” the “3H-heparin binding (in words)” value [4] was “failed to bind to heparin at any concentration that was tested”, the “Promotion of neurite extension by CNS neurons (in words)” value [5] was “CNS neurons appeared to be preferably stimulated by peptide CS I” and the “Promotion of melanoma cell adhesion (in words)” value [3] was “promoted the adhesion of melanoma cells in culture”. For the same substance, the “Melanoma Cell Adhesion, Percent Adhesion” value ([3]; concentration 80 μg/ml) was 71.7% and the “Melanoma Cell Adhesion, Percent Adhesion” value ([3]; concentration 400 μg/ml) was 71.0%.
